What was measured:
[1] = system: Bifidobacterium infantis strain PB-STR-093; assay: Antibiotic susceptibility (MIC) of isolated strains, EFSA standards; assay type: cell-based; details: observed value
Experimental: In alternative embodiments the complete genome sequence of each organism is screened to ensure it contains no genes or pathogenicity island gene clusters encoding known virulence factors, toxins, or antibiotic resistance functions, using publicly available databases such as DBETH55 (for example, see Chakraborty A, et al. (2012) Nucleic Acids Res. 40:615-620) and VFDB56 (Chen L, et al. (2005) Nucleic Acids Res. 33:325-328). Each organism is evaluated by standard antibiotic sensitivity profile techniques such as broth microdilution susceptibility panels or plate-based methods such as disk diffusion method and antimicrobial gradient method (James H. Jorgensen and Mary Jane Ferraro 2009 Clinical Infectious Diseases 49:1749-1755). Such tests determine the minimal inhibitory concentration (MIC) of an antibiotic on microbial growth. Antibiotics evaluated include but are not limited to amoxicillin, amoxicillin/clavulanic acid, carbapenem, methicillin, ampicillin, gentamicin, metronidazole, vancomycin, and neomycin. MIC determinations of novel microbes are compared to published values for both sensitive and resistant related strains to make an assessment on sensitivity (CLSI Guideline M45: Methods for Antimicrobial Dilution and Disk Susceptibility Testing of Infrequently Isolated or Fastidious Bacteria. Wayne, PA; 2015) to determine possible relative increases in antibiotic resistance.

[2] = system: Bifidobacterium infantis strain PB-STR-093; details: expected value based on the EFSA standards; cited from earlier work
[3] = system: Escherichia coli; assay: Simulated gut environment: levels of potentially pathogenic bacteria; assay type: cell-based; details: LNT as carbon source together with B. infantis
Experimental: (§1) To understand the applicability of in vitro observations to the human gut, strains are evaluated in the context of a simulated gut environment. These gut environments are produced with minimal media and seeded with FMT aliquots (Example 2) to reproduce an environment that represents the gut. In these environments, the introduction of prebiotics (in the form of carbon sources, nitrogen sources, and other small molecules) and the introduction of bacteria can be used to shift the community composition, metabolic output, and immunological impact of the gut environments. This allows prebiotic, probiotic, and synbiotic (prebiotic and, probiotic) combinations to be rapidly evaluated to confirm or reject observations determined in simpler systems such as single strain microbial cultures. In subsequent embodiments, machine learning will be used to further reduce the space that must be explored experimentally.

[4] = system: Streptococcus vestibularis; assay: as above; assay type: cell-based; details: LNT as carbon source together with B. infantis
Experimental: as §1

[5] = system: simulated gut environment; assay: Simulated gut environment: community composition after introduction of bacteria and/or prebiotics (whole genome sequencing); assay type: cell-based, human; details: B. infantis combined with lacto-N-tetraose (LNT)
Experimental: The ability of a bacterial addition (representing a probiotic application) to shift the composition of the gut environment was evaluated through the introduction of Bifidobacterium infantis isolate PB-STR-093.
Fifteen different combinations were evaluated covering Bifidobacterium infantis, Bifidobacterium longum, Bifidobacterium breve, and Bifidobacterium bifidum (shown in table 31, where the numerical value for each combination represents the ratio of the microbe in the combination). […] Compositions were also evaluated for their ability to reduce pathogenic species, as well as their metabolic output.

[6] = Growth (OD600) of isolated microbial strains on medium with different carbon sources; assay type: cell-based
Experimental: The growth of isolated strains is evaluated to determine their ability to consume carbon sources and produce specific metabolites. Strains are grown in a minimal media (for example 2 grams (2 ml fine) peptone water (peptone, 10 g/L sodium chloride, 5 g/L), 2 grams yeast extract, 2 grams NaHCO3, 0.1 g NaCl, 0.04 g K2HPO4, 0.04 g KH2PO4, 0.01 g MgSO4·7H2O, 0.01 g CaCl2·6H2O, 2 ml Tween 80, 10 g carbohydrate of choice, 10 μl vitamin K, 0.5 g cysteine, 0.5 g bile salts) that affords control over carbon source. Examples of carbon sources evaluated (independently or in combination) include but are not limited to glucose, lactose, galactose, fructose, xylose, galactooligosaccharides, fructooligosaccharides, xylooligosaccharides, lacto-N-tetraose, lacto-N-neotetraose, 2′-fucosyllactose, 3-fucosyllactose, 3′-sialyllactose, and 6′-sialyllactose. Growth is evaluated by determination of the OD600, which can be performed either on individual samples with a cuvette or tube-based spectrometer (for example the CO 75000™ colorimeter) or on multiple samples in a plate-based format using a plate reader (for example CYTATION 3™). In both cases, values are normalized based on signals from media alone.
Select bacteria were evaluated for their ability to consume different carbon sources to aid in selection of live biotherapeutic (probiotic) bacteria and combinations, mixes and consortia of bacteria as provided herein, and prebiotic combinations (see Table 6) used in compositions and methods as provided herein;

Molecule | Observed Antibiotic MIC [1] | Expected Antibiotic MIC [2] | further results
CC1(C)S[C@@H]2[C@H](NC(=O)[C@H](N)c3ccccc3)C(=O)N2[C@H]1C(=O)O [Ampicillin] | 2 µg/mL | 2 µg/mL | 
O=C(N[C@H](CO)[C@H](O)c1ccc([N+](=O)[O-])cc1)C(Cl)Cl [Chloramphenicol] | 4 µg/mL | 4 µg/mL | 
CCC[C@@H]1C[C@@H](C(=O)N[C@@H]([C@H]2O[C@H](SC)[C@H](O)[C@@H](O)[C@H]2O)[C@H](C)Cl)N(C)C1 [Clindamycin] | 0.125 µg/mL |  | 
CC[C@H]1OC(=O)[C@H](C)[C@@H](O[C@H]2C[C@@](C)(OC)[C@@H](O)[C@H](C)O2)[C@H](C)[C@@H](O[C@@H]2O[C@H](C)C[C@H](N(C)C)[C@H]2O)[C@](C)(O)C[C@@H](C)C(=O)[C@H](C)[C@@H](O)[C@]1(C)O [Erythromycin] | 1 µg/mL | 1 µg/mL | 
CC(=O)N[C@H]1[C@H](O[C@H]2[C@@H](O)[C@@H](CO)O[C@@H](O[C@H]3[C@H](O)[C@@H](O)C(O)O[C@@H]3CO)[C@@H]2O)O[C@H](CO)[C@@H](O)[C@@H]1O[C@@H]1O[C@H](CO)[C@H](O)[C@H](O)[C@H]1O (some centres unmarked) [LNT, lacto-N-tetraose] |  |  | level of Escherichia coli in simulated gut environment [3]: further reduces the presence of these bacteria; level of Streptococcus vestibularis in simulated gut environment [4]: further reduces the presence of these bacteria; growth, engraftment and abundance of Bifidobacterium infantis in the sample [5]: further boosts the abundance of Bifidobacterium infantis
[H]/N=C(/N)N[C@H]1[C@H](O)[C@@H](O)[C@H](O[C@@H]2O[C@@H](C)[C@](O)(C=O)[C@H]2O[C@@H]2O[C@@H](CO)[C@H](O)[C@@H](O)[C@@H]2NC)[C@@H](N/C(N)=N\[H])[C@@H]1O [Streptomycin] | 32 µg/mL | 128 µg/mL | 
CN(C)[C@@H]1C(O)=C(C(N)=O)C(=O)[C@@]2(O)C(O)=C3C(=O)c4c(O)cccc4[C@@](C)(O)[C@H]3C[C@@H]12 [Tetracycline] | 4 µg/mL |  | 
CN[C@H](CC(C)C)C(=O)N[C@H]1C(=O)N[C@@H](CC(N)=O)C(=O)N[C@H]2C(=O)N[C@H]3C(=O)N[C@H](C(=O)N[C@H](C(=O)O)c4cc(O)cc(O)c4-c4cc3ccc4O)[C@H](O)c3ccc(c(Cl)c3)Oc3cc2cc(c3O[C@@H]2O[C@H](CO)[C@@H](O)[C@H](O)[C@H]2O[C@H]2C[C@](C)(N)[C@H](O)[C@H](C)O2)Oc2ccc(cc2Cl)[C@H]1O [Vancomycin] | 0.5 µg/mL | 2 µg/mL | 
Bacteroides fragilis |  |  | OD(600) after 24 hours growth ([6]; carbon source 2′-FL): 0.261; OD(600) after 24 hours growth ([6]; carbon source 3′-SL): 0.457; OD(600) after 24 hours growth ([6]; carbon source FOS): 0.433; OD(600) after 24 hours growth ([6]; carbon source GOS): 0.325; OD(600) after 24 hours growth ([6]; carbon source Glucose): 0.353; OD(600) after 24 hours growth ([6]; carbon source LNT): 0.337; OD(600) after 24 hours growth ([6]; carbon source Mucin): 0.186; OD(600) after 24 hours growth ([6]; carbon source XOS): 0.359; OD(600) after 24 hours growth ([6]; medium with No Carbohydrate): 0.073
Gentamicin | 64 µg/mL | 64 µg/mL | 
